Measured values taken from patent publication US8900600B2, “Identification, optimization and use of cryptic HLA-A24 epitopes for immunotherapy” (VAXON Biotech, priority 2009, dated 2014).

Columns and labels:
HLA-A*2402 = HLA-A*2402 (Homo sapiens, UniProt P04439, D101N/D140Y/D185E/E176V/E190D/F33S/G103R/G107R/I119L/I121M/I306V/K335N/L105A/L180Q/L300P/N151K/N90K/Q86E/Q94H/R106L/R138H/R89G/T104I/T345S/V100E/W191G/Y123F); assay: Measurement of peptide relative affinity to HLA-A*2402 (surface expression on T2-A24 cells); assay type: cell-based
Protocol: Measurement of Peptide Relative Affinity to HLA-A*2402.
The protocol used has been described previously (Rohrlich et al., 2003). Briefly, T2-A24 cells were incubated at 37° C. for 16 hours with peptides concentrations ranging from 100 μM to 0.1 μM, and then stained with 0041HA monoclonal antibody (mAb)(One Lambda, Inc.) to quantify the surface expression of HLA-A*2402. For each peptide concentration, the HLA-A*2402 specific staining was calculated as the percentage of staining obtained with 100 μM of the reference peptide standard A24 (AYIDNYNKF, SEQ ID NO: 111). The relative affinity (RA) was determined as: RA=(Concentration of each peptide that induces 30% of HLA-A*2402-expression/Concentration of the reference peptide that induces 30% of HLA-A*2402 expression).

[1] = tested on: HLA-A*2402 transgenic mice; assay: CTL induction in vivo in HLA-A*2402 transgenic mice (immunogenicity, Cr51 cytotoxic assay); parameters: key to Immunogenicity: (−) means that none of the mice vaccinated with the corresponding native peptides develops a specific immune response; (+) that less to 50% of vaccinated mice responded; (++) that more that 50% responded; key to Immunogenicity (class): −: (-) means that none of the mice vaccinated with the corresponding native peptides develops a specific immune response; (+) that less to 50% of vaccinated mice responded; (++) that more that 50% responded; settings: for Immunogenicity: Table 5, mice vaccinated with 100 μg native peptide in IFA, share of mice with specific immune response; for Immunogenicity (X/Y): X mice develop a specific response for a total of Y mice vaccinated / Immunogenicity (class): Table 7, mice vaccinated with the native or modified peptide; for Immunogenicity (class): share of mice responding
Protocol: FIG. 1: Panels 1A-1F of FIG. 1 show immunogenicity of HLA-A*2402 cryptic peptides. HLA-A*2402 transgenic mice were vaccinated with the cryptic peptides following the described protocol and generated CTL were tested against T2-A24 targets loaded with peptide as indicated (NR non relevant peptide). Percentage of specific lysis was determined as: Lysis=(Experimental Release−Spontaneous Release)/(Maximal Release−Spontaneous Release)×100. Four CTL dilutions, corresponding to four CTL/target cells ratio were tested.
(§1) The transgenic mice used in the described experiments were obtained by crossing HLA-A24 transgenic mice previously described (Barra et al., 1993) and H2 Kb^− H2 Db^− knock out mice, transgenic for both human β2 microglobulin and CD8α chain (Perarnau et al., 1999).
Mice were injected subcutaneously with 100 μg of peptide emulsified in Incomplete Freund's Adjuvant (IFA) in the presence of 150 μg of the I-A^b restricted HBVcore128 T helper epitope (TPPAYRPPNAPIL, SEQ ID NO: 112). After 15 days, 5×10^7 spleen cells were stimulated twice in vitro with peptide (10 μM), at 6 days interval. On day 13 of culture, the bulk responder populations were tested for specific cytotoxicity against target cells expressing HLA-A*2402 and loaded with the same peptide.
(§2) Targets were labelled with 100 μCi of Cr^51 for 60 min, plated in 96-well V-bottomed plates (3×10^3 cell/well in 100 μL of RPMI 1640 medium) and, when necessary, pulsed with optimized or native peptides (1 μM) at 37° C. for 2 hours. Four dilutions of effector cells were then added in the wells and incubated at 37° C. for 4 hours. Percentage of specific lysis was determined as: Lysis=(Experimental Release−Spontaneous Release)/(Maximal Release−Spontaneous Release)×100.

[2] = tested on: HLA-A*2402 transgenic mice; assay: Cross-recognition assay: CTL from mice vaccinated with optimized peptide tested on targets loaded with native peptide; assay type: in vivo; settings: Table 7, CTL of mice vaccinated with the optimized peptide
Protocol: FIG. 2: Panels 2A-2F of FIG. 2 show immunogenicity of HLA-A*2402 restricted optimized cryptic peptides. HLA-A*2402 transgenic mice were vaccinated with the optimized peptide following the described protocol and generated CTL were tested against T2-A24 targets loaded with the optimized (immunogenicity), the corresponding native (native peptide cross recognition) or an irrelevant (NR) peptide as indicated. Percentage of specific lysis was determined as: Lysis=(Experimental Release−Spontaneous Release)/(Maximal Release−Spontaneous Release)×100. Four CTL dilutions, corresponding to four CTL/target cells ratio were tested.
as §1
Mice were injected subcutaneously with 100 μg of optimized peptide emulsified in Incomplete Freund's Adjuvant (IFA) in the presence of 150 μg of the I-A^b restricted HBVcore128 T helper epitope (TPPAYRPPNAPIL, SEQ ID NO: 112). After 15 days, 5×10^7 spleen cells were stimulated firstly in vitro with the optimized peptide (10 μM), and secondly on day 6 of culture with the corresponding native peptide. On day 13, the bulk responder populations were tested for specific cytotoxicity against targets cells expressing HLA-A*2402 and loaded with the optimized, the native or an irrelevant peptide.
as §2

| Sequence | RA (Relative Affinity) (HLA-A*2402; T2-A24 cells, 16 hours at 37° C., relative to reference peptide standard A24, concentration inducing 30% of HLA-A*2402 expression) | Immunogenicity [1] | Immunogenicity (X/Y): X mice develop a specific response for a total of Y mice vaccinated [1] | Immunogenicity (class) [1] | Native peptide cross recognition (X/Y): X mice develop a specific response for a total of Y mice vaccinated [2] | Native peptide cross recognition (class) [2] | Binding to HLA-A*2402 (in words) (HLA-A*2402) | Immunogenicity in HLA-A24 transgenic mice (in words) [1] |
| --- | --- | --- | --- | --- | --- | --- | --- | --- |
| PYMRQFVAH (Cryptic HLA-A2402 restricted peptide) [TERT 770, native cryptic HLA-A*2402 restricted peptide] | +/− ((+/−) 10 < RA < 100) | − | 0/3 | − | 5/18 | + ((+) that less to 50% of vaccinated mice responded) |  |  |
| PYVSRLLGI (Cryptic HLA-A2402 restricted peptide) [Her2/neu 780, native cryptic HLA-A*2402 restricted peptide] |  | − | 0/8 | − | 3/9 | + ((+) that less to 50% of vaccinated mice responded) | strongly binds | non immunogenic |
